The text below walks through data of patent publication US20110306597A1, “Nicotinamide Derivatives” (priority 2008, published 2011).

Bounds are passed on as bounds.

The term IC50 denotes the point on the concentration scale where inhibition reaches its midpoint.

Sequence of human recombinant H-PGDS (O60760 whole entry): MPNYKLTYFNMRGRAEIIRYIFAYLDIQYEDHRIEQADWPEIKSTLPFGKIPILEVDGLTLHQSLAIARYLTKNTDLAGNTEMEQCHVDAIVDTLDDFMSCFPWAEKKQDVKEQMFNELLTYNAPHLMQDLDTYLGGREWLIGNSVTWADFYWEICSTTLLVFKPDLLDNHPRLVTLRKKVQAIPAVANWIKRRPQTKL

The target in this experiment is human recombinant H-PGDS (Homo sapiens, UniProt O60760). The experiment can be described thus: Fluorescence Intensity h-PGDS TBA Enzyme Assay. The format is biochemical. The following applies: 1:175,000 human recombinant H-PGDS, highest inhibitor concentration typically 1 μM. Put shortly:
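Readout is PGH2 depletion: after a 42 s reaction with 5.0 μM PGH2 and 2.5 mM glutathione (pH 8.0 Tris, 10 min inhibitor preincubation), Fe(II) converts leftover PGH2 to MDA, which forms a fluorescent TBA complex. IC50s come from 11-point, 3-fold duplicate curves, 4-parameter fit.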
With `O=C(NCCSCCO)c1ccc(-c2cccc(F)c2)nc1` [Example 440, 6-(3-Fluorophenyl)-N-{2-[(2-hydroxyethyl)thio]ethyl} nicotinamide], the IC50 is 14.4 nM.

With `COc1ccc2nc(CNC(=O)c3ccc(-c4cccc(F)c4)nc3)[nH]c2c1` [Example 441, 6-(3-Fluorophenyl)-N-[(6-methoxy-1H-benzimidazol-2-yl)methyl]nicotinamide], the IC50 was 45.2 nM.

Regarding `COCCCNC(=O)c1ccc(-c2cccc(F)c2)nc1` [Example 442, 6-(3-Fluorophenyl)-N-(3-methoxypropyl)nicotinamide], the IC50 was determined as 41.3 nM.

Regarding `CC(NC(=O)c1ccc(-c2cccc(F)c2)nc1)c1ccncn1` (stereo not drawn) [Example 443, 6-(3-Fluorophenyl)-N-(1-pyrimidin-4-ylethyl)nicotinamide], the IC50 was determined as 359 nM.

`NC(CC(=O)NC(=O)c1ccc(-c2cccc(F)c2)nc1)C1CC1` (stereo not drawn) [Example 444, N-(3-Amino-3-cyclopropylpropanoyl)-6-(3-fluorophenyl) nicotinamide]: the IC50 came to 95.2 nM.

In the case of `O=C(NCC(c1ccccc1Cl)N1CCOCC1)c1ccc(-c2cccc(F)c2)nc1` (stereo not drawn) [Example 445, N-[2-(2-Chlorophenyl)-2-morpholin-4-ylethyl]-6-(3-fluorophenyl)nicotinamide], the IC50 was determined as 589 nM.

In the case of `O=C(NCCc1ccc(O)cc1)c1ccc(-c2cccc(F)c2)nc1` [Example 446, 6-(3-Fluorophenyl)-N-[2-(4-hydroxyphenyl)ethyl] nicotinamide], the IC50 stood at 5.33 nM.

As to `CC(C)(CO)CNC(=O)c1ccc(-c2cccc(F)c2)nc1` [Example 447, 6-(3-Fluorophenyl)-N-(3-hydroxy-2,2-dimethylpropyl) nicotinamide], the IC50 amounted to 47.3 nM.

Consider `Cc1cccc(-c2ccc(C(=O)NCc3nnc(-c4cccnc4)[nH]3)cn2)c1` [Example 448, 6-(3-Methylphenyl)-N-[(5-pyridin-3-yl-4H-1,2,4-triazol-3-yl)methyl]nicotinamide], for which the IC50 was found to be 9.13 nM.

Regarding `Cc1cccc(-c2ccc(C(=O)NCc3ccc(S(N)(=O)=O)cc3)cn2)c1` [Example 449, N-[4-(Aminosulfonyl)benzyl]-6-(3-methylphenyl)nicotinamide], the IC50 was 25.9 nM.

As for `CCC(C)NC(=O)c1ccc(-c2cccc(C)c2)nc1` (stereo not drawn) [Example 450, N-sec-Butyl-6-(3-methylphenyl)nicotinamide], the IC50 was found to be 42.5 nM.

As for `Cc1cccc(-c2ccc(C(=O)NCc3ccc(Cl)cc3)cn2)c1` [Example 451, N-(4-Chlorobenzyl)-6-(3-methylphenyl)nicotinamide], the IC50 turned out to be 234 nM.

As to `COc1ccc(C(N)CC(=O)NC(=O)c2ccc(-c3cccc(C)c3)nc2)cc1OC` (stereo not drawn) [Example 452, N-[3-Amino-3-(3,4-dimethoxyphenyl)propanoyl]-6-(3-methylphenyl) nicotinamide], the IC50 is 23.6 nM.

`CSc1ccc(CNC(=O)c2ccc(-c3cccc(C)c3)nc2)cc1` [Example 453, 6-(3-Methylphenyl)-N-[4-(methylthio)benzyl]nicotinamide]: the IC50 is 102 nM.

Regarding `Cc1cccc(-c2ccc(C(=O)NCc3ccc(C(F)(F)F)cc3)cn2)c1` [Example 454, 6-(3-Methylphenyl)-N-[4-(trifluoromethyl)benzyl] nicotinamide], the IC50 is 149 nM.

Consider `COC(=O)c1ccc(CNC(=O)c2ccc(-c3cccc(C)c3)nc2)cc1` [Example 455, Methyl 4-[({[6-(3-methylphenyl)pyridin-3-yl]carbonyl}amino)methyl] benzoate], for which the 50% inhibitory concentration (IC50) is 95.1 nM.

Regarding `Cc1cccc(-c2ccc(C(=O)NCc3ccc(Cl)c(Cl)c3)cn2)c1` [Example 456, N-(3,4-Dichlorobenzyl)-6-(3-methylphenyl)nicotinamide], the IC50 is 178 nM.

As for `CCOC(=O)C(CNC(=O)c1ccc(-c2ccc(F)cc2)nc1)c1c(F)cccc1F` (stereo not drawn) [Example 457, Ethyl 2-(2,6-difluorophenyl)-3-({[6-(4-fluorophenyl)pyridin-3-yl]carbonyl}amino) propanoate], the IC50 turned out to be 428 nM.

On to `O=C(NCCC1CNCCO1)c1ccc(-c2ccc(F)cc2)nc1` (stereo not drawn) [Example 458, 6-(4-Fluorophenyl)-N-(2-morpholin-2-ylethyl)nicotinamide], for which the IC50 was 697 nM.

For the molecule `O=C(Nc1ccncc1)c1ccc(-c2ccc(F)cc2)nc1` [Example 459, 6-(4-Fluorophenyl)-N-pyridin-4-ylnicotinamide], the IC50 turned out to be 222 nM.

On to `NS(=O)(=O)c1ccc(CNC(=O)c2ccc(-c3ccc(F)cc3)nc2)cc1` [Example 460, N-[4-(Aminosulfonyl)benzyl]-6-(4-fluorophenyl) nicotinamide], for which the IC50 was at least 1000 nM.

In the case of `COc1ccc(CNC(=O)c2ccc(-c3ccc(F)cc3)nc2)cc1OC` [Example 461, N-(3,4-Dimethoxybenzyl)-6-(4-fluorophenyl) nicotinamide], the half-maximal inhibitory concentration (IC50) was found to be 91.5 nM.

For `O=C(NCc1ccc(Cl)cc1)c1ccc(-c2ccc(F)cc2)nc1` [Example 462, N-(4-Chlorobenzyl)-6-(4-fluorophenyl)nicotinamide], the IC50 is at least 1000 nM.

As for `CC(C)CNC(=O)c1ccc(-c2ccc(F)cc2)nc1` [Example 463, 6-(4-Fluorophenyl)-N-isobutylnicotinamide], the IC50 is 653 nM.

With `O=C(CNC(=O)c1ccc(-c2ccc(F)cc2)nc1)OCc1ccccc1` [Example 464, Benzyl N-{[6-(4-fluorophenyl)pyridin-3-yl]carbonyl}glycinate], the IC50 is at least 1000 nM.

For `O=C(NCc1cccc(F)c1)c1ccc(-c2ccc(F)cc2)nc1` [Example 465, N-(3-Fluorobenzyl)-6-(4-fluorophenyl)nicotinamide], the IC50 came out at 345 nM.

As for `COc1ccc(C(N)CC(=O)NC(=O)c2ccc(-c3ccc(F)cc3)nc2)cc1OC` (stereo not drawn) [Example 466, N-[3-Amino-3-(3,4-dimethoxyphenyl)propanoyl]-6-(4-fluorophenyl)nicotinamide], the half-inhibitory concentration (IC50) was at least 1000 nM.

In the case of `CN(C)CCNC(=O)c1ccc(-c2ccc(F)cc2)nc1` [Example 467, N-[2-(Dimethylamino)ethyl]-6-(4-fluorophenyl)nicotinamide], the IC50 was at least 1000 nM.

Turning to `CCC1CCN(CCNC(=O)c2ccc(-c3ccc(F)cc3)nc2)CC1` [Example 468, N-[2-(4-Ethylpiperidin-1-yl)ethyl]-6-(4-fluorophenyl)nicotinamide], the IC50 was 688 nM.

For `O=C(NCCN1CCCC1)c1ccc(-c2ccc(F)cc2)nc1` [Example 469, 6-(4-Fluorophenyl)-N-(2-pyrrolidin-1-ylethyl)nicotinamide], the IC50 was at least 1000 nM.

Consider `CSc1ccc(CNC(=O)c2ccc(-c3ccc(F)cc3)nc2)cc1` [Example 470, 6-(4-Fluorophenyl)-N-[4-(methylthio)benzyl]nicotinamide], for which the IC50 was at least 1000 nM.

As for `CCOC(=O)CC[C@H](NC(=O)c1ccc(-c2ccc(F)cc2)nc1)C(=O)OCC` [Example 471, Diethyl N-{[6-(4-fluorophenyl)pyridin-3-yl]carbonyl}-L-glutamate], the concentration for half-maximal inhibition (IC50) came to 192 nM.

For the molecule `O=C(NCc1cc(F)cc2c1OCOC2)c1ccc(-c2ccc(F)cc2)nc1` [Example 472, N-[(6-Fluoro-4H-1,3-benzodioxin-8-yl)methyl]-6-(4-fluorophenyl)nicotinamide], the half-maximal inhibitory concentration (IC50) came out at 256 nM.

Consider `O=C(NCc1ccco1)c1ccc(-c2ccc(F)cc2)nc1` [Example 473, 6-(4-Fluorophenyl)-N-(2-furylmethyl)nicotinamide], for which the IC50 came to 381 nM.

On to `O=C(NC1CCN(Cc2ccc(Cl)cc2)C1=O)c1ccc(-c2ccc(F)cc2)nc1` (stereo not drawn) [Example 474, N-[1-(4-Chlorobenzyl)-2-oxopyrrolidin-3-yl]-6-(4-fluorophenyl)nicotinamide], for which the IC50 came out at 734 nM.

Consider `O=C(NCc1ccc(Cl)c(Cl)c1)c1ccc(-c2ccc(F)cc2)nc1` [Example 475, N-(3,4-Dichlorobenzyl)-6-(4-fluorophenyl)nicotinamide], for which the half-maximal inhibitory concentration (IC50) is at least 1000 nM.

For the molecule `O=C(NCCN1CCN(Cc2ccccc2)CC1)c1ccc(-c2ccc(F)cc2)nc1` [Example 476, N-[2-(4-Benzylpiperazin-1-yl)ethyl]-6-(4-fluorophenyl)nicotinamide], the IC50 is at least 1000 nM.

Take `O=C(NCCN1CCCC1=O)c1ccc(-c2ccc(F)cc2)nc1` [Example 477, 6-(4-Fluorophenyl)-N-[2-(2-oxopyrrolidin-1-yl)ethyl]nicotinamide]: the half-inhibitory concentration (IC50) came out at 895 nM.

Take `COc1ccc(CNC(=O)c2ccc(-c3ccc(F)cc3)nc2)cc1` [Example 478, 6-(4-Fluorophenyl)-N-(4-methoxybenzyl)nicotinamide]: the IC50 was found to be 377 nM.

As for `O=C(NC1CCN(Cc2ccc(Cl)c(Cl)c2)C1=O)c1ccc(-c2ccc(F)cc2)nc1` (stereo not drawn) [Example 479, N-[1-(3,4-Dichlorobenzyl)-2-oxopyrrolidin-3-yl]-6-(4-fluorophenyl)nicotinamide], the IC50 is 896 nM.

As for `Cc1ccc(CNC(=O)c2ccc(-c3ccc(F)cc3)nc2)cc1` [Example 480, 6-(4-Fluorophenyl)-N-(4-methylbenzyl)nicotinamide], the IC50 worked out at 327 nM.

On to `COc1cccc(-c2ccc(C(=O)NCc3ccc(S(N)(=O)=O)cc3)cn2)c1` [Example 481, N-[4-(Aminosulfonyl)benzyl]-6-(3-methoxyphenyl) nicotinamide], for which the 50% inhibitory concentration (IC50) was 365 nM.

Turning to `O=C(NCc1ccc(F)cc1)c1ccc(-c2ccc(F)cc2)nc1` [Example 482, N-(4-Fluorobenzyl)-6-(4-fluorophenyl)nicotinamide], the IC50 worked out at 527 nM.

Take `COc1cccc(-c2ccc(C(=O)NCc3ccc(Cl)c(Cl)c3)cn2)c1` [Example 483, N-(3,4-Dichlorobenzyl)-6-(3-methoxyphenyl) nicotinamide]: the IC50 came out at 151 nM.

Regarding `COc1cccc(-c2ccc(C(=O)NCc3ccc(C)cc3)cn2)c1` [Example 484, 6-(3-Methoxyphenyl)-N-(4-methylbenzyl)nicotinamide], the IC50 stood at 178 nM.
